Results taken from PubChem BioAssay AID1963969 (Molecular Pharmacology Branch, DTP, NCI, 2024).
pIC50: −log10 of the molar value. Where “and” joins values, the source holds several entries; their conditions need not be identical. Identical values can stand only once.

Test system: 817829-284-R-J1-PDC multi-cell spheroid viability
Assay: Anticancer human tumor 817829-284-R-J1-PDC patient-derived colon adenocarcinoma cell line growth inhibition [PI3K]
Conditions: for viability, T/C: stronger effect = lower value
How it was run: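 Agents were dosed from a top concentration near clinical Cmax (otherwise 10 microM) in half-log decrements, alone or combined with PI3K inhibitors. The spheroids contain tumor cells plus endothelial (HUVEC) and MSC stroma; viability is measured.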

[1] = curve of first compound, second compound 0.00316 µM
[2] = curve of first compound, second compound 0.01 µM
[3] = curve of first compound, second compound 0.0316 µM
[4] = curve of first compound, second compound 0.1 µM
[5] = curve of first compound, second compound 0.316 µM
[6] = curve of first compound, second compound 1 µM
[7] = second compound 0.00316 µM, first compound 0.0316 µM
[8] = second compound 0.00316 µM, first compound 0.1 µM
[9] = second compound 0.01 µM, first compound 0.0316 µM
[10] = second compound 0.01 µM, first compound 0.1 µM
[11] = second compound 0.0316 µM, first compound 0.0316 µM
[12] = second compound 0.0316 µM, first compound 0.1 µM
[13] = second compound 0.1 µM, first compound 0.0316 µM
[14] = second compound 0.1 µM, first compound 0.1 µM
[15] = second compound 0.316 µM, first compound 0.0316 µM
[16] = second compound 0.316 µM, first compound 0.1 µM
[17] = second compound 1 µM, first compound 0.0316 µM
[18] = second compound 1 µM, first compound 0.1 µM
[19] = second compound 0.00316 µM, first compound 0.316 µM
[20] = second compound 0.00316 µM, first compound 1 µM
[21] = second compound 0.00316 µM, first compound 3.16 µM
[22] = second compound 0.00316 µM, first compound 10 µM
[23] = second compound 0.01 µM, first compound 0.316 µM
[24] = second compound 0.01 µM, first compound 1 µM
[25] = second compound 0.01 µM, first compound 3.16 µM
[26] = second compound 0.01 µM, first compound 10 µM
[27] = second compound 0.0316 µM, first compound 0.316 µM
[28] = second compound 0.0316 µM, first compound 1 µM
[29] = second compound 0.0316 µM, first compound 3.16 µM
[30] = second compound 0.0316 µM, first compound 10 µM
[31] = second compound 0.1 µM, first compound 0.316 µM
[32] = second compound 0.1 µM, first compound 1 µM
[33] = second compound 0.1 µM, first compound 3.16 µM
[34] = second compound 0.1 µM, first compound 10 µM
[35] = second compound 0.316 µM, first compound 0.316 µM
[36] = second compound 0.316 µM, first compound 1 µM
[37] = second compound 0.316 µM, first compound 3.16 µM
[38] = second compound 0.316 µM, first compound 10 µM
[39] = second compound 1 µM, first compound 0.316 µM
[40] = second compound 1 µM, first compound 1 µM
[41] = second compound 1 µM, first compound 3.16 µM
[42] = second compound 1 µM, first compound 10 µM
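Further: spheroids exposed to agents for seven days before readout.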
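Wherever viability, T/C is given: percent of vehicle DMSO control viability which is 100%.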

CC(Nc1ncnc2nc[nH]c12)c1cc2cccc(Cl)c2c(=O)n1-c1ccccc1 (stereo not drawn)
viability, T/C (compound 0.0316 µM): 98.7% and 80.4% | viability, T/C (compound 0.1 µM): 78.1% and 107% | viability, T/C (compound 0.316 µM): 98.9% and 104% | viability, T/C (compound 1 µM): 89% and 74.1% | viability, T/C (compound 3.16 µM): 82.9% and 94.8% | viability, T/C (compound 10 µM): 66% and 70.4% | pIC50 (compound alone, run of 04/25/2023): < 5.00

CC(C)n1nc(-c2ccc3oc(N)nc3c2)c2c(N)ncnc21 + CC(Nc1ccc2c(c1)OCCn1cc(N3C(=O)OCC3C(F)F)nc1-2)C(N)=O
pIC50 [1]: 8.17 | pIC50 [2]: 7.64 | pIC50 [3]: 8.06 | pIC50 [4]: 8.34 | pIC50 [5]: 8.36 | pIC50 [6]: > 9.50 | viability, T/C (second compound 0.00316 µM, first compound 0.000316 µM): 112% | viability, T/C (second compound 0.00316 µM, first compound 0.001 µM): 51.6% | viability, T/C (second compound 0.00316 µM, first compound 0.00316 µM): 65.3% | viability, T/C (second compound 0.00316 µM, first compound 0.01 µM): 60.2% | viability, T/C [7]: 27.9% | viability, T/C [8]: 16.2% | viability, T/C (second compound 0.01 µM, first compound 0.000316 µM): 60.2% | viability, T/C (second compound 0.01 µM, first compound 0.001 µM): 63.8% | viability, T/C (second compound 0.01 µM, first compound 0.00316 µM): 69.5% | viability, T/C (second compound 0.01 µM, first compound 0.01 µM): 68.1% | viability, T/C [9]: 43.9% | viability, T/C [10]: 14.7% | viability, T/C (second compound 0.0316 µM, first compound 0.000316 µM): 114% | viability, T/C (second compound 0.0316 µM, first compound 0.001 µM): 73.1% | viability, T/C (second compound 0.0316 µM, first compound 0.00316 µM): 73.9% | viability, T/C (second compound 0.0316 µM, first compound 0.01 µM): 50.3% | viability, T/C [11]: 28.1% | viability, T/C [12]: 12.8% | viability, T/C (second compound 0.1 µM, first compound 0.000316 µM): 59.7% | viability, T/C (second compound 0.1 µM, first compound 0.001 µM): 38.7% | viability, T/C (second compound 0.1 µM, first compound 0.00316 µM): 76.4% | viability, T/C (second compound 0.1 µM, first compound 0.01 µM): 32% | viability, T/C [13]: 32.1% | viability, T/C [14]: 13.8% | viability, T/C (second compound 0.316 µM, first compound 0.000316 µM): 53.7% | viability, T/C (second compound 0.316 µM, first compound 0.001 µM): 68.9% | viability, T/C (second compound 0.316 µM, first compound 0.00316 µM): 48.7% | viability, T/C (second compound 0.316 µM, first compound 0.01 µM): 41.7% | viability, T/C [15]: 22.2% | viability, T/C [16]: 13.8% | viability, T/C (second compound 1 µM, first compound 0.000316 µM): 56.8% | viability, T/C (second compound 1 µM, first compound 0.001 µM): 30.8% | viability, T/C (second compound 1 µM, first compound 0.00316 µM): 38.3% | viability, T/C (second compound 1 µM, first compound 0.01 µM): 27.3% | viability, T/C [17]: 79.8% | viability, T/C [18]: 18.4%

Cn1ncc(Cl)c1-c1cc(C(=O)NC(CN)Cc2cccc(F)c2)sc1Cl (stereo not drawn) + COc1c(OCCCN2CCOCC2)ccc2c3n(c(=NC(=O)c4cnc(N)nc4)nc12)CCN3
pIC50 [1]: 7.14 | pIC50 [2]: 7.10 | pIC50 [3]: 7.34 | pIC50 [4]: > 7.50 | pIC50 [5]: > 7.50 | pIC50 [6]: > 7.50 | viability, T/C [7]: 105% | viability, T/C [8]: 29.4% | viability, T/C [19]: 21.1% | viability, T/C [20]: 20.9% | viability, T/C [21]: 18.1% | viability, T/C [22]: 15.5% | viability, T/C [9]: 69.6% | viability, T/C [10]: 46.2% | viability, T/C [23]: 25.6% | viability, T/C [24]: 25.9% | viability, T/C [25]: 18.3% | viability, T/C [26]: 10.8% | viability, T/C [11]: 59% | viability, T/C [12]: 31.2% | viability, T/C [27]: 16.8% | viability, T/C [28]: 20.9% | viability, T/C [29]: 15.8% | viability, T/C [30]: 10.5% | viability, T/C [13]: 25.4% | viability, T/C [14]: 25.4% | viability, T/C [31]: 21.2% | viability, T/C [32]: 15.2% | viability, T/C [33]: 13.9% | viability, T/C [34]: 10.3% | viability, T/C [15]: 20.2% | viability, T/C [16]: 23.4% | viability, T/C [35]: 15.2% | viability, T/C [36]: 12.2% | viability, T/C [37]: 11.1% | viability, T/C [38]: 8.71% | viability, T/C [17]: 9.57% | viability, T/C [18]: 11.1% | viability, T/C [39]: 8.51% | viability, T/C [40]: 9.47% | viability, T/C [41]: 7.2% | viability, T/C [42]: 8.41%

CC(Cn1ccc(-c2ccc(C#N)c(Cl)c2)n1)NC(=O)c1cc(C(C)O)[nH]n1 (stereo not drawn) + COc1c(OCCCN2CCOCC2)ccc2c3n(c(=NC(=O)c4cnc(N)nc4)nc12)CCN3
pIC50 [1]: < 5.00 | pIC50 [2]: 5.19 | pIC50 [3]: 5.24 | pIC50 [4]: > 7.50 | pIC50 [5]: > 7.50 | pIC50 [6]: > 7.50 | viability, T/C [7]: 70.6% | viability, T/C [8]: 101% | viability, T/C [19]: 101% | viability, T/C [20]: 97.5% | viability, T/C [21]: 64.5% | viability, T/C [22]: 73.9% | viability, T/C [9]: 59.5% | viability, T/C [10]: 87.1% | viability, T/C [23]: 98.8% | viability, T/C [24]: 57.1% | viability, T/C [25]: 71.1% | viability, T/C [26]: 39.4% | viability, T/C [11]: 50.8% | viability, T/C [12]: 61.7% | viability, T/C [27]: 61.4% | viability, T/C [28]: 67.5% | viability, T/C [29]: 54.6% | viability, T/C [30]: 36.4% | viability, T/C [13]: 48.2% | viability, T/C [14]: 30.8% | viability, T/C [31]: 30.2% | viability, T/C [32]: 38.1% | viability, T/C [33]: 33.2% | viability, T/C [34]: 26.8% | viability, T/C [15]: 20.2% | viability, T/C [16]: 21.3% | viability, T/C [35]: 23.6% | viability, T/C [36]: 20.5% | viability, T/C [37]: 24.4% | viability, T/C [38]: 20.8% | viability, T/C [17]: 12.9% | viability, T/C [18]: 7.86% | viability, T/C [39]: 10.6% | viability, T/C [40]: 9.64% | viability, T/C [41]: 9.96% | viability, T/C [42]: 10.4%
